The source of these data is BindingDB's records for doi:10.1021/jm0605482 (Amgen, 2006).

Usually pIC50 stands for the negative decadic logarithm of the IC50, by convention in mol/L. Low values mean a high IC50, high ones a low IC50.

pIC50: −log10 of the molar value.

The target in the assay is Aurora kinase B (Homo sapiens) (UniProt Q96GD4). Nature of the assay: Inhibition of Aurora1 by HTRF kinase assay. On the technique in general: Time-resolved FRET reads energy transfer from a long-lived donor to a nearby acceptor.
Aurora kinase B (Homo sapiens), sequence (Q96GD4 whole entry, looked up): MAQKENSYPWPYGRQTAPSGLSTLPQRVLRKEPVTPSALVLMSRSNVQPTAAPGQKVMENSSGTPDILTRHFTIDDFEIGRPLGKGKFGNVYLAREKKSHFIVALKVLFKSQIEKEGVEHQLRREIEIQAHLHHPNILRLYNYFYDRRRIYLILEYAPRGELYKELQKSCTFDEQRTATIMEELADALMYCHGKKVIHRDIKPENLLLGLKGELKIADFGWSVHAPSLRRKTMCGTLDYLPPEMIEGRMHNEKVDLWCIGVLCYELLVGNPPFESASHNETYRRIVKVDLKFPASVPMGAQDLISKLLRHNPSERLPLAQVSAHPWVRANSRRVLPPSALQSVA

For the compound `CNc1ncc2cc(-c3cc(C(=O)Nc4cc(C(F)(F)F)ccc4OC4CCN(C)CC4)ccc3C)ccc2n1` [4-methyl-3-(2-(methylamino)quinazolin-6-yl)-N-(2-(1-methylpiperidin-4-yloxy)-5-(trifluoromethyl)phenyl)benzamide], the pIC50 was less than 5.30.
